Each structure is given as a SMILES string.

Format in all cases: in vivo, Lewis rats
Assay [1] relates to sciatic nerve crush injury. Description: Collagen sheet covering 5 mm to 15 mm distal to injury site, evaluation 7 days after crush injury (axonal regeneration). The note with it: sheet with 500 μg inhibitor in 50 μl 1% DMSO, placed 2 hours; 7 days after injury; vs control sheet; n=1; FIG. 37. The source says:
Anesthetized Lewis rats (males, 12-16 weeks old) or C57BL/6 mice (males, 8-10 weeks old) were placed in the prone position and a longitudinal skin incision was made from the left buttock to the distal left thigh to expose the entire sciatic nerve. […] An 8-0 Nylon thread was applied to the epineurium at the crush injury for marking, and the incision was closed.
(§1) After a predetermined time had elapsed from the creation of the crush injury, the right atrial appendage of the animals was incised under anesthesia to release the blood, and a PBS solution was poured into the left heart to remove the blood. After transcardial perfusion and fixation with 4% paraformaldehyde-added PBS, the sciatic nerve was collected.
(§2) Sciatic nerves collected from animals were fixed in 4% PFA at 4° C. overnight and then transferred to 30% Sucrose/PB solution and allowed to stand for 24 hours or longer. Longitudinal sciatic nerve sections of 10 μm thickness, or in the case of mice, transverse sections at predetermined locations, were prepared using a cryostat. The sections were blocked in TBS (pH 8.4) containing 5% Normal horse serum (Thermo Fisher Scientific, Waltham, MA) and 0.25% Triton X-100 (Sigma-Aldrich, St. Louis, MO) for 1 hour, and then immersed in TBS containing primary antibody at 4° C. overnight and in TBS containing secondary antibody at room temperature for 1 hour for staining. After washing with TBS, counterstaining was performed with DAPI. After staining, tissues were observed using a fluorescence microscope BZ-X710 (KEYENCE).
(§3) In β3 tubulin-immunostained images of longitudinal sciatic nerve sections, vertical lines were set at 5 mm intervals in the direction distal to the injury site, and the number of axons crossing each line was divided by the length of the line to calculate axon density. The axonal regeneration percentage was calculated by dividing the axon density at each location by the axon density at uninjured site 1.5 mm proximal to the injury site.
Crush injuries were created in the sciatic nerve of rats. […] […] Seven days after injury creation, the sciatic nerves were collected, and immunohistochemical staining of their longitudinal sections was performed to calculate the axonal regeneration percentage.

Assay [2] deals with sciatic nerve crush injury. Nature of the assay: Collagen sheet covering 5 mm to 25 mm distal to injury site, evaluation 7 days after crush injury (macrophages, axonal regeneration). The note with it: placed 2 hours, 7 days after injury, vs control sheet.
Description: (§4) Anesthetized Lewis rats (males, 12-16 weeks old) or C57BL/6 mice (males, 8-10 weeks old) were placed in the prone position and a longitudinal skin incision was made from the left buttock to the distal left thigh to expose the entire sciatic nerve. Crush injuries were created with micro mosquito forceps (Fine Science Tools, No. 13010-12). An 8-0 Nylon thread was applied to the epineurium at the crush injury for marking, and the incision was closed.
as §1
as §2, with “(KEYENCE). Image analysis was performed using Image J (Schneider et al., 2012).” for “(KEYENCE).”
as §3
(§5) Crush injuries were created in the sciatic nerve of rats.
Crush injuries were created in the sciatic nerve of rats. […] The sheets were removed 12 hours after injury creation and the incisions were closed after washing.
as §5

The subject of assay [3] is sciatic nerve crush injury. Nature of the assay: Collagen sheet covering 15 mm to 25 mm distal to injury site, evaluation 12 hours after crush injury (NETs, macrophages). The conditions noted are these: n=3; for NETs in the epineurium (CitH3 positive area) / macrophages accumulated in the nerve parenchyma: 20 mm distal.
Description: as §4, §1
as §2, with “(KEYENCE). Image analysis was performed using Image J (Schneider et al., 2012).” for “(KEYENCE).”
Crush injuries were created in the sciatic nerve of rats. Ten hours after injury creation, the sciatic nerves from 15 mm to 25 mm distal to the injury site were wrapped with the collagen-based artificial skin PELNAC (registered trademark) (Smith & Nephew; hereafter also referred to as sheets or collagen sheets) impregnated with either 50 μl of PBS containing 0.3 mg of the PAD4 inhibitor Cl-amidine (Cayman CHEMICAL #10599), 50 μl of PBS containing 200 U of DNase I (Nippon Gene #314-08071), or 50 μl of PBS (control). The sheets were suture-fixed with 8-0 nylon and placed for 2 hours (n=3 in each group). Twelve hours after injury creation, the sciatic nerves were collected, their longitudinal sections at 20 mm distal to the injury site were prepared and immunohistochemical staining for CitH3, Ly-6G, and CD68 was performed. The epineural area was observed and the percentage of area stained for CitH3 in the total area of the field of view was calculated. The number of macrophages per unit area of the nerve parenchyma was quantified.
Crush injuries were created in the sciatic nerve of rats. Ten hours after injury creation, the sciatic nerves from 15 mm to 25 mm distal to the injury site were wrapped with collagen sheets impregnated with either 50 μl of 1% DMSO containing 500 μg of the MIF inhibitor iso-1 (Abcam, Cat ab142140), or 50 μl of 1% DMSO. The sheets were suture-fixed with 8-0 nylon and placed for 2 hours (n=3 in each group). Twelve hours after injury creation, the sciatic nerves were collected, their longitudinal sections were prepared, and immunohistochemical staining for CitH3, Ly-6G, and CD68 was performed. The epineural area was observed and the percentage of area stained for CitH3 in the total area of the field of view was calculated. The number of macrophages per unit area of the nerve parenchyma was quantified.
Crush injuries were created in the sciatic nerve of rats. Ten hours after injury creation, the sciatic nerves from 15 mm to 25 mm distal to the injury site were wrapped with collagen sheets impregnated with either 50 μl of PBS containing 500 μg of the CXCR4 inhibitor AMD3100 (Abcam #10599), or 50 μl of PBS. The sheets were suture-fixed with 8-0 nylon and placed for 2 hours (n=3 in each group).

As to `O=C(CC1CC(c2ccc(F)cc2F)=NO1)N1CCOCC1` (stereo not drawn) [CPSI-1306], in assay [1], the axonal regeneration percentage entry was “higher axonal regeneration percentage” and the longest axon length result is on record as “greater longest axon length”.
`O=C(O)CC1CC(c2ccc(O)cc2)=NO1` (racemic) [iso-1, (S,R)-3-(4-Hydroxyphenyl)-4,5-dihydro-5-isoxazole acetic acid]: the axonal regeneration percentage result in assay [2] (sheet with 1000 μg iso-1 in 100 μl 1% DMSO, over almost the entire evaluated regions, n=3, FIG. 35) is reported as “higher axonal regeneration percentage”. The “accumulation of macrophages in the nerve parenchyma (CD68; M2 macrophages CD163)” value in assay [2] (sheet with 1000 μg iso-1 in 100 μl 1% DMSO, over the entire evaluated regions, n=3, FIG. 33, 34) is listed as “greater accumulation of macrophages in the nerve parenchyma”. Besides, in assay [1], the axonal regeneration percentage entry was “higher axonal regeneration percentage” and the longest axon length result is reported as “greater longest axon length”. Further, in assay [3] (sheet with 500 μg iso-1 in 50 μl 1% DMSO, placed 2 hours, 12 hours after injury, FIG. 32), the “NETs in the epineurium at 20 mm distal to the injury site (CitH3 positive area)” value was “only a small amount of NETs were detected”. For the same molecule, the “macrophage accumulation at 5 mm distal to the injury site (no sheet treatment there)” value in assay [3] (sheet with 500 μg iso-1 in 50 μl 1% DMSO, placed 2 hours, 12 hours after injury, vs control sheet, FIG. 30) is on record as “no difference in macrophage accumulation”. In addition, in assay [3] (sheet with 500 μg iso-1 in 50 μl 1% DMSO, placed 2 hours, 12 hours after injury, vs control sheet, FIG. 31), the “macrophages accumulated in the nerve parenchyma at 20 mm distal to the injury site (sheet-treated)” value is recorded as “more macrophages accumulated in the nerve parenchyma”.
With `c1cc(CN2CCCNCCNCCCNCC2)ccc1CN1CCCNCCNCCCNCC1` [AMD3100, 1,4-Bis[(1,4,8,11-tetraazacyclotetradecan-1-yl)methyl]benzene], the “macrophages accumulated in the nerve parenchyma” value is on record as “more macrophages accumulated in the nerve parenchyma” in assay [2] (sheet with 1 mg AMD3100 in 100 μl PBS, over almost the entire evaluated regions, n=1, FIG. 42) and “more macrophages accumulated in the nerve parenchyma” in assay [3] (sheet with 500 μg AMD3100 in 50 μl PBS, placed 2 hours, 12 hours after injury, vs control sheet, FIG. 40). The axonal regeneration percentage entry in assay [2] (sheet with 1 mg AMD3100 in 100 μl PBS, n=1, FIG. 41) is listed as “higher axonal regeneration percentage”. Moreover, in assay [3] (sheet with 500 μg AMD3100 in 50 μl PBS, placed 2 hours, 12 hours after injury, FIG. 39), the “NETs in the epineurium (CitH3 positive area)” value is on record as “only a small amount of NETs were detected”.
In the case of `N=C(CCl)NCCC[C@H](NC(=O)c1ccccc1)C(N)=O.O=C(O)C(F)(F)F` [Cl-amidine, N^2-Benzoyl-N^5-(1-imino-2-chloroethyl)-L-ornithinamide trifluoroacetic acid], the “NETs in the epineurium (CitH3 positive area)” value in assay [3] (sheet with 0.3 mg Cl-amidine or 200 U DNase I in 50 μl PBS, placed 2 hours from 10 hours after injury, 12 hours, vs control sheet (large amount), FIG. 25) is on record as “only a small amount of NETs were detected”. In addition, in assay [3] (sheet with 0.3 mg Cl-amidine or 200 U DNase I, placed 2 hours, 12 hours, CD68, vs control sheet, FIG. 26), the “macrophages accumulated in the nerve parenchyma” value is listed as “more macrophages accumulated in the nerve parenchyma”.

The values are drawn from patent US20250074976A1, “PHARMACEUTICAL COMPOSITION FOR TREATING PERIPHERAL NERVE INJURY” (NATIONAL UNIVERSITY CORPORATION HOKKAIDO UNIVERSITY, priority 2021, published 2025).
